Assay results reported in patent US20260133193A1, “COMPOSITIONS AND METHODS FOR TREATING INFLAMMATORY DISEASES” (University of Washington, priority 2018, published 2026).

What was measured:
Format in all cases: cell-based, human
neutrophils [1] = assay: Phagocytosis assay in neutrophils (flow cytometry)
Description: To determine whether the reciprocal was true, namely, that TLR activation could inhibit phagocytosis of ICs, the uptake of RNase-treated RNP-ICs was analyzed in presence of the TLR7/8 agonist, R848. […] Specifically, neutrophils were stimulated with R848 prior to incubation with RNase-treated RNP-ICs, HAGG, beads or zymosan. The results are expressed as phagocytosis as compared to no R848 added (% of control). […] Finally, to determine if TLR7/8 activation affected the internalization process and/or the binding ability of the ICs, neutrophils were treated with the cytoskeleton inhibitor Cytochalasin B prior to adding the ICs, thus blocking uptake, but not binding. Specifically, neutrophils, treated with or without R848 followed by cytochalasin B (CytoB, 5 μM), were analyzed for binding and uptake of RNP-ICs by flow cytometry.
SLE IgG, SmRNP and heat-aggregated IgG (HAGG) were labeled with Alexa-647 according to manufacturer's protocol (Life Technologies). Neutrophils, or PBMCs, from healthy individual were stimulated with different ICs, FITC-conjugated latex beads or zymosan (100 μg/mL, Life Technologies) for 30 minutes at 37° C. and immediately analyzed for phagocytosis. In blocking experiments, neutrophils were incubated with 0.1 μM TLR7-9 or control iODN (Enzo Life Sciences), CMK (25 μM, Enzo Life Sciences), cytochalasin B (5 M, Sigma) or antibodies directed against CD16, CD32 or CD64 (all used at 10 μg/mL, BioLegend) for 30 minutes before addition of stimuli. In some experiments, R848, at a concentration of 2 μg/mL, or neutrophil supernatant, was added 30 and 90 minutes before addition of the phagocytic stimuli, respectively.

FcgRIIA on neutrophils = assay: FcgRIIA shedding, fluorimetry of shed antibody-FcgRIIA complexes in supernatant; conditions: pre-labeled neutrophils, R848 stimulation
Description: To assess if reduction in FcgRIIA cell surface expression was dependent on proteolytic cleavage or internalization of the receptor, we analyzed total FcgRIIA expression in fixed permeabilized neutrophils. Specifically, neutrophils were activated with R848 and FcgRIIA levels analyzed in permeabilized cells by flow cytometry. The experiment was repeated five times and compared using paired t test (P=0.0075). […] Specifically, FcgRIIA cell surface expression was analyzed by flow cytometry using two antibodies, FUN2 and IV.3, in non-stimulated and R848-stimulated neutrophils. The experiment was repeated six times; combined results were compared using paired t test (P<0.0001). […] For this experiment, neutrophils were labeled with FITC-conjugated IV.3 anti-FcgRIIA or anti-FUN-2 antibodies and the shed antibody-FcgRIIA complex quantified by fluorimetry following R848 stimulation with or without prior addition of a pan-protease inhibitor. […]
For detection of shed FcgRIIA, neutrophils were pre-labeled with FITC-conjugated anti-CD32A antibody IV.3 (Stemcell Technologies) or FITC-conjugated anti-CD32A antibody FUN-2 (Biolegend), and washed extensively prior to activation with R848. Cell free supernatant was analyzed for shed FcgRIIA-anti-CD32A-FITC complexes by flourimetry (Synergy 2, BioTek) using anti-CD32A antibodies as a standard curve. […]

neutrophils [2] = assay: ROS analysis in neutrophils (DHR123, OxyBURST); conditions: flow cytometry and fluorimetry, cell impermeable ROS dye
FcgRIIA on monocytes = assay: FcgRIIA and CD11b on monocytes (PBMCs with R848, neutrophils or neutrophil supernatant)
Description: Since we observed prominent protease-mediated shedding of FcgRIIA in neutrophils, we next asked if activated neutrophils could induce shedding of FcgRIIA in other immune cells. PBMCs were co-incubated with neutrophils (PMNs) in the presence of R848 and a pan-protease inhibitor. Levels of FcgRIIA on monocytes (CD14+), and pDCs (CD304+) were determined by flow cytometry and expressed as FcgRIIA (% of control) as compared to PBMCs incubated in medium in absence of neutrophils. […]
To determine if the loss of monocyte FcgRIIA was mediated through cell-cell interactions or due to a soluble neutrophil-derived factor, we added supernatant from TLR7/8-activated neutrophils to monocytes. Specifically, neutrophil supernatant, derived from non-stimulated (no, n=5) or R848-stimulated (R848, n=9) neutrophils, were added to monocytes in presence of indicated inhibitors (CMK; furin inhibitor, n=5, and Pan; pan-protease inhibitor, n=5) and monocyte FcgRIIA levels analyzed by flow cytometry. […]
Neutrophils and PBMCs were incubated at a 2:1 ratio (500,000 vs 250,000 cells) with the pan-protease inhibitor (1×) for 30 minutes followed by R848 (2 μg/mL) for an additional 60 minutes and analyzed for FcgR levels by flow cytometry. […]

monocytes = assay: Monocyte phagocytosis of RNP-ICs; conditions: RNase exposure or R848 priming
Description: Monocytes were incubated with R848 or neutrophil supernatant prior to addition of RNP-ICs or beads. Phagocytosis was determined by flow cytometry.
SLE IgG, SmRNP and heat-aggregated IgG (HAGG) were labeled with Alexa-647 according to manufacturer's protocol (Life Technologies). Neutrophils, or PBMCs, from healthy individual were stimulated with different ICs, FITC-conjugated latex beads or zymosan (100 μg/mL, Life Technologies) for 30 minutes at 37° C. and immediately analyzed for phagocytosis. […] In some experiments, R848, at a concentration of 2 μg/mL, or neutrophil supernatant, was added 30 and 90 minutes before addition of the phagocytic stimuli, respectively.
Plasmacytoid dendritic cells were identified based on their expression of BDCA-4 (Miltenyi Biotech) and monocytes based on their expression of CD14 (Biolegend). In some experiments neutrophil supernatant (generated by incubating neutrophils with R848 for 90 minutes) were added to PBMCs with or without presence of the pan-protease inhibitor (1×), and expression of FcgRs and phagocytic ability analyzed in monocytes by flow cytometry as described above.

[3] = neutrophils stimulated with R848 before stimuli, vs no R848

CCOCc1nc2c(N)nc3ccccc3c2n1CC(C)(C)O [R848]
uptake of RNase-treated RNP-ICs and HAGG by neutrophils (neutrophils [1]; [3]): significantly decreased uptake of ICs as well as heat-aggregated IgG (HAGG)
uptake of beads and zymosan by neutrophils (neutrophils [1]; [3]): increased uptake of beads and zymosan
binding and uptake of RNP-ICs by neutrophils (neutrophils [1]; with or without R848, followed by cytochalasin B 5 μM): suppressed both IC-mediated binding and subsequent phagocytosis
cell-free FcgRIIA-IV.3 (anti-CD32A) complexes in supernatant (FcgRIIA on neutrophils): detected in increased amounts in the cell-free supernatant
cellular localization of ROS generation (neutrophils [2]): induced intracellular generation of ROS, but no detectable extracellular ROS
monocyte cell surface CD11b (FcgRIIA on monocytes; R848): up-regulation of cell surface CD11b
monocyte cell surface FcgRIIA levels (FcgRIIA on monocytes; flow cytometry): unchanged
monocyte phagocytosis of RNP-ICs (monocytes): not affected
